Experimental data reported in patent US5958894A, “Amphiphilic biguanide derivatives” (Megabios Corporation, priority 1997, dated 1999).

What was measured:
[1] = tested on: CAT reporter gene expression in lung; experiment: Gene transfer efficiency by intravenous delivery: CAT reporter gene (plasmid p4119) activity in mouse organs; assay type: in vivo, ICR female mice; settings: with either cholesterol or DLPE as neutral lipids
Description: (§1) DOBG, DMBG and DPBG were used to prepare liposomes with either cholesterol or DLPE (1,2-dilauroyl-sn-glycerol-3-phosphoethanolamine) as neutral lipids. The lipids were dissolved in a mixture of chloroform and methanol (1:1). Lipid films of cationic and neutral lipid at a 1:1 molar ratio were formed with a rotary evaporator. The films were hydrated with either 5% dextrose in water (D5W) or 5 mM HEPES buffer (pH 7.4) at various temperatures. […] DMBG:DLPE was hydrated in D5W at 50° C. and extruded through a 0.05 μm membrane. […] DOBG:cholesterol and DOBG:DLPE were hydrated in D5W at room temperature and extruded through a 0.05 μm membrane.

in vivo transfection = experiment: Comparison of in vivo transfection activity of biguanide and guanidine derivatives with identical hydrophobic chains; settings: data not shown
Description: The biguanide derivatives of the present invention differ from the guanidine derivatives described in WO 95/14381 in the positively charged headgroups. The positive charge of the biguanide derivatives is delocalized over five nitrogen atoms, whereas the positive charge of the guanidine derivatives is delocalized over three nitrogen atoms. Thus, compounds of the present invention have been compared to the guanidine derivatives having the identical hydrophobic chains (not shown).

[2] = Liposome hydration and extrusion; assay type: physicochemical; settings: at 50° C.; with either DLPE or cholesterol
Description: as §1

[3] = strongly basic head group; cited from earlier work

CCCCCCCC/C=C\CCCCCCCC(=O)OCCN(CCOC(=O)CCCCCCC/C=C\CCCCCCCC)C(=N)NC(=N)N [DOBG, N,N-di(2-(oleoyloxy)ethyl) biguanide]
transfection activity in the lung compared with DOTIM:cholesterol [1]: comparable to or higher than DOTIM:cholesterol | in vivo transfection activity, dioleoyl derivatives of biguanide versus guanidine (in vivo transfection): higher in vivo transfection activity than the dioleolyl derivatives of guanidine

CCCCCCCCCCCCCCCC(=O)OCCN(CCOC(=O)CCCCCCCCCCCCCCC)C(=N)NC(=N)N [DPBG, N,N-di(2-(palmitoyloxy)ethyl)biguanide]
Hydration of lipid film [2]: could not be completely hydrated

N=C(N)NC(=N)N [biguanide]
pKa [3]: 11.5
